The subject of data set [1] is Powdery Mildew (PM), Uncinula Necator. In words: First year grape vine spray test (Thompson Seedless grapes). It is filed as in vivo. The settings on record: summary of first year test. The source says:
The objective of this study was to test the affect of capsicum on Powdery Mildew (PM), Uncinula Necator and Downey Mildew (DM), Plasmopara Viticola and its destruction of the grape vine, leaves, flag shoots, shoots and bunches. Grape varieties are susceptible to powdery mildew and Downey mildew, Thompson's Seedless grapes was used as a test subject.
Treatment began in the beginning of the season onto fruiting bodies (Cleistothecia) and the early stage of bud growth (3 to 5 inches). Later treatment was applied again, after about 3 weeks when there was new bud growth. When the fruits were about the size of small peas, treatment is once again applied to the bunches. Treatment was also planned to be administered if symptoms of fungal infections arose.
• Kalsec brand water soluble; Code #01-050-02-01 • MasterTaste brand oil soluble; Code 500087, Lot #059618
The grape vineyard to be treated is located at 19521 American Ave., Kerman Calif.,—Thompson Seedless grapes—NW corner. (Block 5B). Vines were sprayed with standard spray equipment (bottles). The spray was applied at approximately one foot away from the plants and vines. The spray was applied at an application rate of about ½ the usual spray application from a standard tractor rig. The budding fruit was sprayed along with the leaves and new budding growth. The spray was administered from the sides only. […]

For data set [2] the following is noted: cited from earlier work.

The structures appear in SMILES notation.

For `COc1cc(CNC(=O)CCCC/C=C/C(C)C)ccc1O` [Capsaicin, N-vanillyl-8-methyl-6-(E)-noneamide], the “effect on growth of mildew on grape vines” value in data set [1] is on record as “hinders or kills the growth of mildew”. For the same molecule, the solubility in alcohol entry in data set [2] (alcohol) was “soluble”. Also, in data set [2] (cold water), the “solubility in cold water” value was “insoluble”. Moreover, the “solubility in fats, oils and alcohol” value in data set [2] (fats, oils and alcohol) is “very soluble”. In data set [2] (water), the solubility in water result is “sparingly soluble”.

Source of the values: patent publication US20100159042A1, “CAPSICUM BASED MILDEW KILLING SOLUTION AND METHOD OF USE” (priority 2008, published 2010).
